Laboratory results taken from US20190292223A1, “SAP AND PEPTIDOMIMETICS FOR TREATMENT OF EYE DISEASE” (Arch Biosurgery, Inc., priority 2018, published 2019).
One block for each substance: values may come before it. Cy5.5 = Cy5.5 dye

Experiments:
[1] = parameters: species or system Sprague-Dawley rats; conditions: rat, in vivo
Protocol: The fate of SAP upon application to the eye was investigated. Specifically, the ability of SAP to reach the retina via application of eye drop solutions of the SAP to the cornea was evaluated using an SAP-Cy5 conjugate.
Adult white Sprague-Dawley rats weighing between 200 and 240 grams were housed in a 12 hour light/12 hour night cycle with free access to food and water. The animals were randomly divided into experimental or control groups.
Conjugates of Cy5.5 and RADA (SEQ ID NO: 57), Cy5.5 and RADARADA ((RADA)2; SEQ ID NO: 88), and Cy5.5 and H2N(RADA)4CONH2 (SEQ ID NO: 433) were prepared according to a modified protocol of Chen X., et al., Cancer Res., 64(21): 8009-8014 (2004).
In one experiment, RADA-4-Cy5.5 conjugate was prepared as follows: 0.5 mg of H2N(RADA)4CONH2 was dissolved in 50 μL of DMSO to a final concentration of […] in DMSO. The solution was mixed with 20 μL of diethyl isopropyl amine (DIPEA) to adjust the pH to 12. A solution of Cy5.5 dyes (1.0 mg in 20 μL of DMSO) was added at room temperature for conjugation and the mixture was periodically vortexed over 2 hours.
In some experiments, the RADA-4 solution was prepared with water as the solvent, for example: to a solution of RADA-4 (1.8 mg of H2N(RADA)4CONH2 (SEQ ID NO: 433) in 500 μL of Milli-Q water), 1 μL of Diisopropyl ethylene amine (DIPEA) was added to obtain pH 8 from 4. To prepare a working Cy5.5 stock, 165 μL of Milli-Q water was added to 165 μL Cy5.5 to make a 6.59×10^−7 M solution. The final conjugate was prepared by mixing equal volumes (165 μL) of the buffered (pH 8) (RADA)4 solution and Cy5.5 solution at room temperature for 2 hours.
Eye drops were applied to both eyes of rats. The experimental group of rats were administered 2 μL of Cy5.5-(RADA)4 conjugate via drops, while control rats were administered Cy5.5 only via drops. The experiments were repeated using Cy5.5 conjugated to RADA (Cy5.5(RADA)COOH; SEQ ID NO: 442) and Cy5.5 conjugated to (RADA)2 (Cy5.5(RADA)2COOH; SEQ ID NO: 444).
The rats were sacrificed 24 hours or 3 days post treatment. The eye balls of the rats were harvested and were then fixed in 4% paraformaldehyde (PFA) overnight. Excessive PFA was washed with 0.1M phosphate buffer (0.1MPB) 3 times (30 minutes each). The eyeballs were then dehydrated with 30% sucrose solution (30 g sucrose in 100 mL of 0.1 MPB) overnight, while replenishing the sucrose solution once for at least 6 hours. As necessary, the shape of the eyeballs was reformed with O.C.T. (Optimal Cutting Temperature compound; TISSUE-TEK® O.C.T.; CA) by injecting through the optic nerve. Each eye was embedded entirely in a mount with O.C.T. in liquid nitrogen to form frozen blocks. Blocks containing the eye samples were then sectioned at 20 microns and were placed on charged slides and allowed to dry. The slides were then rinsed to remove excess OCT and cover-slipped. The fate of the Cy5.5-RADA conjugate was investigated by tracing the color of the Cy5.5 in the eye. Visualization was performed with light microscopy and photographs were taken with a SPOT camera affixed to the Zeiss microscope.

[2] = tested on: activated retinal microglial cells; assay: Lipopolysaccharide ocular inflammation model, 1 μl LPS alone or with SAP intravitreally, sacrifice after 24 hours (Example 2); assay type: in vivo, Sprague-Dawley rats
Protocol: Adult white Sprague-Dawley rats with a weight of between 200 and 240 grams were housed in a 12 hours light/12 hours night cycle with free access to food and water. The animals were randomly divided into a study or control groups.
Intravitreal injections, immunohistochemical staining and assessment of intraocular inflammation were generally performed as described in Example 1.
1 μl sterile lipopolysaccharide (LPS; from S. typhimurium; catalog no. L-7261; Sigma-Aldrich, St. Louis, Mo.) either alone or in combination with (RADA)2 (SEQ ID NO: 88) solutions at 0.1%, 1.0%, and 10.0% were administered via direct intravitreal injections. The animals were sacrificed 24 hours after treatment. The experiments were repeated at least 5 times.
In some experiments, different SAP, including S2 (H2N(EARA)COOH; SEQ ID NO: 92), S3 (H2N(RARA)CONH2; SEQ ID NO: 413), and S5 (H2N(EARA)2CONH2; SEQ ID NO: 414), were evaluated as described above for (RADA)2 (SEQ ID NO: 88).
Finally, a conjugate of an EARA based SAP and a tissue-specific motif (MSCRAMM; SEQ ID NO: 141) was also evaluated using this lipopolysaccharide ocular inflammation model. Experiments were performed as described above for (RADA)2 (SEQ ID NO: 88). Briefly, 1 μl sterile lipopolysaccharide (LPS; from S. typhimurium; catalog no. L-7261; Sigma-Aldrich, St. Louis, Mo.) either alone or in combination with MSCRAMM(EARA)4 (SEQ ID NO: 432) solutions at 1.0%, and 3.0% were administered via direct intravitreal injections. The animals were sacrificed 24 hours after treatment. The experiments were repeated three times for each SAP conjugate concentration (that is, n=3 for 1%; n=3 for 3%).

[3] = tested on: activated retinal microglial cells; assay: Lipopolysaccharide ocular inflammation model, intravitreal co-injection, quantification of activated retinal microglial cells (Example 1); assay type: in vivo, Sprague-Dawley rats; parameters: TOTAL AREA WEIGHT (total retinal area weight-averaged density; amount of inflammation) / JEB #: unit not given here; conditions: for JEB # / TOTAL AREA WEIGHT (total retinal area weight-averaged density; amount of inflammation): 0.5% RADA + LPS intravitreal
Protocol: The anti-inflammatory effect of SAP was examined using the lipopolysaccharide ocular inflammation model, and measurement of microglial cell activation was assessed as an indicator of inflammation. Morphological changes in macrophage cells, such as microglial cells, can be used as a marker of the presence and extent of inflammation. Methods for identifying and scoring variations in microglial cell morphology in response to inflammatory stimuli are described in the art (see, for example, Jonas, et al., PLoS ONE 7(2): e30763 (2012)).
Adult white Sprague-Dawley rats weighing between 200 and 240 grams were housed in a 12 hour light/12 hour night cycle with free access to food and water. The animals were randomly divided into study or control groups.
Animals were anesthetized by an intraperitoneal injection of xylazine 2% (5 mg/kg body weight) and ketamine 10% (100 mg/kg body weight). Topical anesthesia was additionally provided by repeated administration of proparacaine (0.5%) drops onto the cornea. A thorough disinfection of the ocular surface, the lid margins and the periocular skin was carried out with iodine 5% solution.
Using a glass pipette pulled to the size of a 30 gauge needle and attached to a syringe, 2 μl of sterile, pyrogen-free saline containing lipopolysaccharides from Salmonella typhimurium (catalog no. L-7261; Sigma-Aldrich, St. Louis, Mo.) was intravitreally injected.
For the primary experiment, the study included 40 Sprague-Dawley rats. All intravitreal injection volumes were of 2 μl, to reduce the effects of increased ocular pressure. All intravitreal injections of lipopolysaccharides (LPS) volumes were 4 μg at a concentration of 2 μg/μL.
The control groups (n=20) received either an intravitreal saline injection (n=5), lipopolysaccharide (LPS) alone ([…]), or no injection as a normal control group (n=5). Animals in the SAP study group (n=15) also received the self-assembling peptide (amino acid sequence RADARADARADARADA; “RADA-16”) in concentrations of 0.5% of SAP/2 μL.
At one, three and seven days after the injections, the animals were sacrificed, and the globes were immunohistochemically stained and histomorphometrically examined. The contralateral eye from the LPS group was also examined.
The eyes were embedded with Optimal Cutting Temperature compound (Tissue-Tek® O.C.T., Ted Pella, Inc. Redding, Calif.) after the lenses were removed. The globes were sectioned and placed on subbed slides. After being washed in 0.01M phosphate buffered saline for 10 minutes, the sections (15 μm) were immersed in a blocking solution containing 0.3% triton, 2.5% bovine serum albumin (BSA; Proliant Co, Ankeny, Iowa, USA) and 2% goat serum for 30 minutes. The sections were incubated in a primary antibody diluted solution overnight at 4° C., containing rabbit anti-IBA1 (Ionized calcium Binding Adaptor molecule 1; 1:500; Wako Pure Chemical Industries, Ltd. Osaka, Japan) and mouse anti rat CD 68 (ED1) (1:1000; AbD Serotech, D-40470 Dusseldorf, Germany). The sections were then washed in 0.01M phosphate buffered saline (10 minutes, 3 times), and incubated with secondary antibody diluted solution at room temperature for 2 hours (Goat-anti-rabbit 568, Goat-anti-mouse Alexa 488, (Invitrogen, Carlsbad, Calif., 1:400)). The slides were then washed in 0.01M phosphate buffered saline (10 minutes, 3 times) and cover slipped with fluorescein mounting medium with DAPI (4′,6-diamidin-2′-phenylindol-dihydrochloride; Dako Ltd, Glostrup, Denmark). All images were taken under a 20× objective with a Carl Zeiss Flour microscope (Carl Zeiss Inc. Oberkochen, Germany) fitted with a spot camera. All illumination levels were fixed during image acquisition.
The amount of intraocular inflammation was assessed by quantification of immunohistochemically labeled activated retinal microglial cells, which function as the immune mediators of the central nervous system. […]

[4] = 1.0% and 3.0% solutions with LPS, 24 hours

- transport across the cornea / localization [1]: not transported across the cornea
Substance: Cy5.5 [reference compound]
- pink coloration (Cy5.5) in the retina [1]: no pink coloration was observed in any part of the retina or optic nerve head

Substance: Cy5.5(RADA)2COOH ({Cy5.5}-RADARADA-OH) [Cy5.5 conjugated to RADARADA]
- localization [1]: localize to the retina

Substance: Cy5.5(RADA)4CONH2
- localization [1]: localize to the retina
- pink coloration (Cy5.5) in the retina [1]: pink coloration was observed throughout the outer retina
- transport across the cornea / localization [1]: localize within the retina

Substance: Cy5.5(RADA)COOH ({Cy5.5}-RADA-OH) [Cy5.5 conjugated to RADA]
- localization [1]: localize to the retina

Substance: H2N(EARA)2CONH2 (H-EARAEARA-NH2) [SAP S5]
- signs of retinal inflammation compared to control ([2]; along with LPS, FIG. 5): marked reduction

Substance: H2N(EARA)COOH (H-EARA-OH) [SAP S2]
- signs of retinal inflammation compared to control ([2]; along with LPS, FIG. 5): marked reduction

Substance: H2N(RARA)CONH2 (H-RARA-NH2) [SAP S3]
- LPS induced inflammation ([2]; along with LPS, FIG. 5): reduced LPS induced inflammation to normal levels
- signs of retinal inflammation compared to control ([2]; along with LPS, FIG. 5): marked reduction

Substance: MSCRAMM(EARA)4 (MSCRAMMEARAEARAEARAEARA) [conjugate of an EARA based SAP and a tissue-specific motif (MSCRAMM]
- ED1 reactivity [2, 4]: no evidence of ED1 reactivity
- activation of microglia (JEB score) [2, 4]: ≤ 4
- inflammation in treated animals [2, 4]: no inflammation
- signs of retinal inflammation compared to control (LPS only) [2, 4]: reduction

Substance: RADARADA [(RADA)2]
- signs of retinal inflammation compared to control (LPS alone) ([2]; all concentrations (0.1%, 1.0%, 10.0%), 24 hours, FIG. 4): marked reduction
- density of activated retinal microglial cells compared to controls (LPS alone) ([2]; combination injection with LPS, 24 hours): significantly lower

Substance: RADARADARADARADA
- JEB # ([3]; Day 1): 11.63
- TOTAL AREA WEIGHT (total retinal area weight-averaged density; amount of inflammation) ([3]; Day 1): 74.99
- TOTAL AREA WEIGHT (total retinal area weight-averaged density; amount of inflammation) ([3]; Day 1, listed as SAP): 75.0±26.6
- JEB # ([3]; Day 3): 8.502
- TOTAL AREA WEIGHT (total retinal area weight-averaged density; amount of inflammation) ([3]; Day 3): 55.91
- TOTAL AREA WEIGHT (total retinal area weight-averaged density; amount of inflammation) ([3]; Day 3, listed as SAP): 55.9±45.9
- JEB # ([3]; Day 7): 9.158
- TOTAL AREA WEIGHT (total retinal area weight-averaged density; amount of inflammation) ([3]; Day 7): 52.66
- TOTAL AREA WEIGHT (total retinal area weight-averaged density; amount of inflammation) ([3]; Day 7, listed as SAP): 52.7±47.7
- amount of inflammation compared to normal or saline injected controls ([3]; 0.5% SAP + LPS): no significant difference
- level of inflammation compared to LPS-only control group ([3]; 0.5% SAP + LPS): significantly (P<0.001) lower
- density of activated retinal microglial cells compared to LPS controls ([3]; SAP + LPS vs LPS-only): significantly lower
- signs of retinal inflammation ([3]; intraocular SAP along with LPS): marked reduction
